The values below come from US12668803B2, “Glypican-3-specific modified aptamer and use thereof” (APTAMER SCIENCES INC., priority 2019, dated 2026).

The subject of data set [1] is hepatoma specific cells expressing high levels of GPC3 (HepG2, Hep3B). As to the kind of experiment: Cellular internalization of combi 6 to combi 10 (FIG. 17B). Type of data set: cell-based.
Data set [2] relates to Hep3B. As to the kind of experiment: Cellular internalization of chemically optimized aptamers (FIG. 17A). Type of data set: cell-based. Conditions: combi 1 to combi 5, FIG. 17A.
In data set [3] the test system is Huh 7 cells. Description: Cell binding analysis of Cy5-labeled aptamers (FACS). Type of data set: cell-based. Conditions: 25 nM aptamer, 12-10 and truncated aptamers, FIG. 6. The protocol:
The 12-10 aptamer and 5 aptamer libraries prepared by truncating the 12-10 aptamer at various lengths [12-10 (40-mer), 12-12 (35-mer), 12-11 (29-mer), 12-13 (24-mer), 12-14 (23-mer), 12-15 (18-mer)] were subjected to cell binding analysis. Each aptamer sequence was labeled with Cy5 at the 5′ end thereof according to the method of Example 1-1. Huh 7 cells (ATCC, Rockville, MD, USA) were seeded at a density of 2×10^6/mL in a 100 mm^2 culture plate, and cultured using a DMEM medium (Gibco, Grand Island, NY, USA) containing 10% FBS (Gibco, Grand Island, NY, USA) and 1% antibiotics (penicillin/streptomycin) under conditions of 5% CO2 and 37° C. 5 μM of the aptamer stock was mixed with 5×SB18 buffer to prepare the aptamer at a concentration of 4 μM, and heated at 95° C. for 5 min, and then cooled at room temperature for 15 min or more. 4 μM of the aptamer was diluted with KRPH buffer (20 mM HEPES, 5 mM KH2PO4, 1 mM MgSO4, 1 mM CaCl2, 136 mM NaCl, 4.7 mM KCl, pH 7.4) at a concentration of 25 nM. The culture medium was removed from the cultured cells, and 4 mL of phosphate-buffered saline (PBS) was added thereto, followed by washing, and then 4 mL of PBS was removed. 4 mL of cold PBS or warm PBS was added, and cells were scraped using a scraper, and collected in tubes, followed by pipetting. The cells were divided and added to fluorescence-activated cell sorting (FAC) tubes according to the number of samples, followed by centrifugation at 4° C. and 2000 rpm for 4 min. After removing the supernatant, each 500 μL of 25 nM aptamer and control (31-08 (40-mer) aptamer) were added to […] of KRPH buffer, followed by pipetting. The tube was covered with foil to block the light, followed by incubation at 4° C. for 30 min. After incubation, centrifugation was performed at 4° C. and 2000 rpm for 4 min, and the supernatant was removed. 2 mL of cold 1×PBS was added, washed, centrifuged at 4° C. and 2000 rpm for 4 min, and the supernatant was removed. This process was repeated three times. […] Cy5 was measured at […]. […]

Data set [4] in a line: Serum stability analysis (urea PAGE). Type of data set: in vitro ADME, human. The conditions noted are these: 100% human serum, 37° C., FIG. 28. The protocol:
To examine whether 12-12, combi 5 aptamer, combi 4 and combi 5 modified aptamers bound with three or five gemcitabines are stable in the human serum, serum stability was analyzed. In detail, 10 μL of […] was added to 100% human serum, followed by incubation at 37° C. for 0 hr, 1 hr, 3 hr, 6 hr, 12 hr, and 24 hr. After incubation, 5 μL of […] was added, and distilled water was added to a volume of 250 μL. 250 μL of phenol:chloroform:isoamyl alcohol (25:24:1) was added in the equal volume, followed by stirring. Each sample was centrifuged at 16000×g for 10 min. The supernatant was transferred to a new tube, and completely dried. The resultant was diluted with 5× sample buffer and distilled water, and boiled at 95° C. for 5 min, and cooled. The sample was separated by urea PAGE (Polyacrylamide gel Electrophoresis) at 220 V for 25 min, and then stained with SYBR gold and examined using a Gel Doc™ EZ system.

The test system of data set [5] is Huh-7 cells. As to the kind of experiment: Cellular internalization analysis (microscopy, lysotracker/DAPI). Type of data set: cell-based. The protocol: 5 aptamer libraries prepared by truncating the 12-10 aptamer at various lengths [12-12 (35-mer), 12-11 (29-mer), 12-13 (24-mer), 12-14 (23-mer), and 12-15 (18-mer)] were subjected to cellular internalization analysis. In detail, a 6-well plate was prepared, and a round cover glass was placed in the 6-well plate. Huh-7 cells were cultured in the 6-well plate according to the method of Example 1-3. 5 μM of the aptamer stock was mixed with 5×SB18 buffer to prepare the aptamer at a concentration of 4 μM, and heated at 95° C. for 5 min, and then cooled at room temperature for 15 min or more. The next day, the medium was removed from the cultured cells, and a serum-free medium was added thereto, and cultured under conditions of 37° C. and 5% CO2 for 1 hr. The serum-free medium was removed, and then the cells were washed with 2 mL of 1×PBS. KRPH buffer was added, and cultured under conditions of 37° C. and 5% CO2 for 1 hr. 4 μM aptamer was diluted to 25 nM, and then cultured under conditions of 37° C. and 5% CO2 for 1 hr or 4 hr. Washing was repeated three times with 2 mL of 1×PBS. Washing was performed in a shaker at room temperature for 10 min while blocking the light. Thereafter, the cells were fixed by treatment with 4% paraformaldehyde at 4° C. for 10 min. Washing was repeated three times with 2 mL of 1×PBS. A permeabilization solution (0.2% Triton X-100 in 1×PBS) was added, followed by incubation at room temperature for 15 min. Washing was repeated three times with 2 mL of 1×PBS. A blocking solution (3% BSA, 1×PBS) was added, followed by incubation under conditions of 37° C. and 5% CO2 for 20 min. Washing was performed once with 2 mL of 1×PBS. Treatment with a blocking solution containing 150 nM lysotracker was performed, followed by incubation under conditions of 37° C. and 5% CO2 for 1 hr. Washing was repeated three times with 2 mL of 1×PBS, and staining with 4′,6-diamidino-2-phenylindole (DAPI) was performed. The cover glass was carefully removed and […]. […]

The test system of data set [6] is squamous cell carcinoma cell A431. Description: Cytotoxicity (CCK-8) of 12-12 G(3). Type of data set: cell-based. On the procedure:
(§1) In detail, HepG2, Hep3B, and A431 cells (ATCC, Rockville, MD, USA) were each seeded in a 96-well plate at a density of 1×10^4/mL and cultured using a DMEM (Gibco, Grand Island, NY, USA) medium containing 10% FBS (Gibco, Grand Island, NY, USA) and 1% antibiotics (penicillin/streptomycin) under conditions of 5% CO2 and 37° C. The next day, the aptamer stock (100 μM) was mixed with 5×SB18 buffer to prepare the stock at a concentration of 80 μM, and heated at 95° C. for 5 min, and then cooled at room temperature for 15 min or more. The medium was removed from the cultured cells, and 100 μL of a serum-free medium was added thereto, and cultured under conditions of 37° C. and 5% CO2 for 1 hr. The serum-free medium was removed, and then the cells were washed with 100 μL of 1×PBS. 100 μL of KRPH buffer was added, and cultured under conditions of 37° C. and 5% CO2 for 1 hr. The aptamer was diluted with KRPH buffer to 2-fold of the desired concentration, and added to a 96-well plate at 1× concentration, and cultured under conditions of 37° C. and 5% CO2 for 4 hr. After treatment with the aptamer, the KRPH buffer was removed, and then 100 μL of culture medium was added and cultured under conditions of 37° C. and 5% CO2 for 6 days. 6 days later, 10 μL of a CCK-8 kit solution was added to each well, and then cultured under conditions of 37° C. and 5% CO2 for 3 hr. Cell death levels were examined at […] using a microplate reader.

Data set [7] has as its system HepG2. Description: Cytotoxicity (CCK-8) of 12-12 G(3). Type of data set: cell-based. On the procedure:
as §1

As to “Combi 9: SEQ ID NO: 18, chemically optimized 12-12 aptamer (G_{Me}nG_{Me}A_{F}A_{F}nGCGnnG,A_{F}AnnAnGnC_{F}C_{F}C_{F}nnCAG_{Me}nCAnCrAyCr; 2'-F and 2'-OMe units, modified base n undefined, 3' idT, as printed in the source, key not given here)”, the cellular internalization entry in data set [1] is “highest cellular internalization”.
Take “Combi 8: SEQ ID NO: 17, chemically optimized 12-12 aptamer (G_{Me}nG_{Me}A_{F}A_{F}nGCGnnG_{F}A_{F}A_{Me}nnA_{Me}nWnC_{F}C_{F}C_{F}nnCAG_{Me}nCAnC_{F}A_{Me}C_{F}; 2'-F and 2'-OMe units, modified bases n, W undefined, 3' idT, as printed in the source, key not given here)”: the cellular internalization result in data set [1] is given as “highest cellular internalization”.
On to “Combi 4: SEQ ID NO: 13, chemically optimized 12-12 aptamer (G_{Me}nG_{Me}A_{F}A_{F}nGCGnnG_{F}A_{F}A_{F}nnA_{F}nGYC_{F}C_{F}C_{F}nnCAG_{Me}nCAnCAMC_{F}; 2'-F and 2'-OMe units, modified bases n, Y, M undefined, 3' idT, as printed in the source, key not given here)”, for which the Hep3B cellular internalization entry in data set [2] is listed as “excellent cellular internalization”.
For the substance “12-12: SEQ ID NO: 6, 35-mer truncated from 2428-12-10, idT at 3′ end (GNGAANGCGNNGAANNANGNCCCNNCAGNCANCAC; modified base n undefined, 3' idT per name, further chemistry not given here)”, in data set [3], the cell binding ability result is on record as “most excellent cell binding ability”. Further, the “half-life in the human serum” value in data set [4] came to 6 h. In addition, the cellular internalization entry in data set [5] (25 nM, truncated aptamers, FIG. 7) was “most excellent cellular internalization”.
“12-12 G(3) (DNA GNGAANGCGNNGAANNANGNSSSNNCAGNCANCAC; three gemcitabines, BzdU and 3' inverted dT, positions not given here)”: the “cellular internalization over time” value in data set [5] (1 hr, 2 hr, and 4 hr after the start of internalization, FIG. 11) was “most excellent cellular internalization”. For the same substance, the cellular internalization entry in data set [5] (vs 12-12 and scrambled 12-12, FIG. 10) is “most excellent cellular internalization”. The “cell-killing effects on A431” value is listed as “no cell-killing effects” in data set [6] (10 nM to 1 μM, FIG. 12) and “no cell-killing effects” in data set [6] (31.75 nM to 2 μM, FIG. 13). Also, the HepG2-killing effects entry in data set [7] (10 nM to 1 μM, vs 12-12 or 30 nM to 3 μM gemcitabine, FIG. 12) is reported as “excellent HepG2-killing effects”; in data set [7] (31.75 nM to 2 μM, vs same concentrations of 12-12 or gemcitabine, FIG. 13) it was “excellent HepG2-killing effects”.
